Measured values from the NIST ThermoML archive (doi:10.1016/j.fluid.2018.09.024).
Numbers after ± are expanded uncertainties.

assay: activity coefficient (dimensionless); of the first substance listed, at infinite dilution; xn = mol fraction of the nth substance listed; conditions: 348.15 K; 101.33 kPa; Liquid; Chromatography; x1 = 0

**Q.** For `c1ccccc1` [benzene] + CCCCCCCCCCCC[N+](C)(C)CCOc1ccccc1.N#C[N-]C#N, which activity coefficient is on record?
**A.** 0.905 ± 0.057

**Q.** Which activity coefficient does the source give for `c1ccccc1` [benzene] + CCCCCCCCCCCC[N+](C)(C)CCOc1ccccc1.O=S(=O)([N-]S(=O)(=O)C(F)(F)F)C(F)(F)F here?
**A.** 0.658 ± 0.045

**Q.** Which activity coefficient does the source give for `CCCCO` [butan-1-ol] + CCCCCCCCCCCC[N+](C)(C)CCOc1ccccc1.N#C[N-]C#N here?
**A.** 0.483 ± 0.037

**Q.** For `CCCCO` [butan-1-ol] + CCCCCCCCCCCC[N+](C)(C)CCOc1ccccc1.O=S(=O)([N-]S(=O)(=O)C(F)(F)F)C(F)(F)F, which activity coefficient is on record?
**A.** 1.23 ± 0.08

**Q.** With `CCC(C)O` (stereo unspecified) [butan-2-ol] + CCCCCCCCCCCC[N+](C)(C)CCOc1ccccc1.N#C[N-]C#N as the molecule, how does the activity coefficient read?
**A.** 0.522 ± 0.039

**Q.** With `CCC(C)O` (stereo unspecified) [butan-2-ol] + CCCCCCCCCCCC[N+](C)(C)CCOc1ccccc1.O=S(=O)([N-]S(=O)(=O)C(F)(F)F)C(F)(F)F as the molecule, how does the activity coefficient read?
**A.** 1.15 ± 0.07

**Q.** For `CCCC=O` [butanal] + CCCCCCCCCCCC[N+](C)(C)CCOc1ccccc1.N#C[N-]C#N, which activity coefficient is on record?
**A.** 0.79 ± 0.051

**Q.** With `CCCC=O` [butanal] + CCCCCCCCCCCC[N+](C)(C)CCOc1ccccc1.O=S(=O)([N-]S(=O)(=O)C(F)(F)F)C(F)(F)F as the molecule, how does the activity coefficient read?
**A.** 0.81 ± 0.052

**Q.** With `C1CCCCCC1` [cycloheptane] + CCCCCCCCCCCC[N+](C)(C)CCOc1ccccc1.N#C[N-]C#N as the molecule, how does the activity coefficient read?
**A.** 3.31 ± 0.23

**Q.** With `C1CCCCCC1` [cycloheptane] + CCCCCCCCCCCC[N+](C)(C)CCOc1ccccc1.O=S(=O)([N-]S(=O)(=O)C(F)(F)F)C(F)(F)F as the molecule, how does the activity coefficient read?
**A.** 2.37 ± 0.16

**Q.** Which activity coefficient does the source give for `C1CCCCC1` [cyclohexane] + CCCCCCCCCCCC[N+](C)(C)CCOc1ccccc1.N#C[N-]C#N here?
**A.** 3.18 ± 0.22

**Q.** Which activity coefficient does the source give for `C1CCCCC1` [cyclohexane] + CCCCCCCCCCCC[N+](C)(C)CCOc1ccccc1.O=S(=O)([N-]S(=O)(=O)C(F)(F)F)C(F)(F)F here?
**A.** 2.11 ± 0.14

**Q.** With `C1=CCCCC1` [cyclohexene] + CCCCCCCCCCCC[N+](C)(C)CCOc1ccccc1.N#C[N-]C#N as the molecule, how does the activity coefficient read?
**A.** 2.22 ± 0.15

**Q.** With `C1=CCCCC1` [cyclohexene] + CCCCCCCCCCCC[N+](C)(C)CCOc1ccccc1.O=S(=O)([N-]S(=O)(=O)C(F)(F)F)C(F)(F)F as the molecule, how does the activity coefficient read?
**A.** 1.61 ± 0.11

**Q.** For `C1CCCCCCC1` [cyclooctane] + CCCCCCCCCCCC[N+](C)(C)CCOc1ccccc1.N#C[N-]C#N, which activity coefficient is on record?
**A.** 3.69 ± 0.25

same assay, conditions: 358.15 K; 101.33 kPa; Liquid; Chromatography; x1 = 0

**Q.** With `CCC(C)(C)OC` [2-methoxy-2-methylbutane] + CCCCCCCCCCCC[N+](C)(C)CCOc1ccccc1.N#C[N-]C#N as the molecule, how does the activity coefficient read?
**A.** 2.69 ± 0.18

**Q.** For `CCC(C)(C)OC` [2-methoxy-2-methylbutane] + CCCCCCCCCCCC[N+](C)(C)CCOc1ccccc1.O=S(=O)([N-]S(=O)(=O)C(F)(F)F)C(F)(F)F, which activity coefficient is on record?
**A.** 1.5 ± 0.1

**Q.** For `COC(C)(C)C` [2-methoxy-2-methylpropane] + CCCCCCCCCCCC[N+](C)(C)CCOc1ccccc1.N#C[N-]C#N, which activity coefficient is on record?
**A.** 2.43 ± 0.17

**Q.** Which activity coefficient does the source give for `COC(C)(C)C` [2-methoxy-2-methylpropane] + CCCCCCCCCCCC[N+](C)(C)CCOc1ccccc1.O=S(=O)([N-]S(=O)(=O)C(F)(F)F)C(F)(F)F here?
**A.** 1.27 ± 0.08

**Q.** Which activity coefficient does the source give for `CC(C)CO` [2-methyl-1-propanol] + CCCCCCCCCCCC[N+](C)(C)CCOc1ccccc1.N#C[N-]C#N here?
**A.** 0.477 ± 0.037

**Q.** Which activity coefficient does the source give for `CC(C)CO` [2-methyl-1-propanol] + CCCCCCCCCCCC[N+](C)(C)CCOc1ccccc1.O=S(=O)([N-]S(=O)(=O)C(F)(F)F)C(F)(F)F here?
**A.** 1.16 ± 0.07

**Q.** Which activity coefficient does the source give for `CC(C)(C)O` [2-methylpropan-2-ol] + CCCCCCCCCCCC[N+](C)(C)CCOc1ccccc1.N#C[N-]C#N here?
**A.** 0.584 ± 0.041

**Q.** For `CC(C)(C)O` [2-methylpropan-2-ol] + CCCCCCCCCCCC[N+](C)(C)CCOc1ccccc1.O=S(=O)([N-]S(=O)(=O)C(F)(F)F)C(F)(F)F, which activity coefficient is on record?
**A.** 0.986 ± 0.062

**Q.** Which activity coefficient does the source give for `CCC(C)CC` [3-methylpentane] + CCCCCCCCCCCC[N+](C)(C)CCOc1ccccc1.N#C[N-]C#N here?
**A.** 5.46 ± 0.37

**Q.** For `CCC(C)CC` [3-methylpentane] + CCCCCCCCCCCC[N+](C)(C)CCOc1ccccc1.O=S(=O)([N-]S(=O)(=O)C(F)(F)F)C(F)(F)F, which activity coefficient is on record?
**A.** 3.01 ± 0.2

**Q.** With `C=C(C)c1ccccc1` [(1-methylethenyl)benzene] + CCCCCCCCCCCC[N+](C)(C)CCOc1ccccc1.N#C[N-]C#N as the molecule, how does the activity coefficient read?
**A.** 1.32 ± 0.09

**Q.** Which activity coefficient does the source give for `C=C(C)c1ccccc1` [(1-methylethenyl)benzene] + CCCCCCCCCCCC[N+](C)(C)CCOc1ccccc1.O=S(=O)([N-]S(=O)(=O)C(F)(F)F)C(F)(F)F here?
**A.** 0.985 ± 0.062

**Q.** With `CC(C)=O` [acetone] + CCCCCCCCCCCC[N+](C)(C)CCOc1ccccc1.N#C[N-]C#N as the molecule, how does the activity coefficient read?
**A.** 0.791 ± 0.051

**Q.** Which activity coefficient does the source give for `CC(C)=O` [acetone] + CCCCCCCCCCCC[N+](C)(C)CCOc1ccccc1.O=S(=O)([N-]S(=O)(=O)C(F)(F)F)C(F)(F)F here?
**A.** 0.421 ± 0.035

**Q.** Which activity coefficient does the source give for `CC#N` [acetonitrile] + CCCCCCCCCCCC[N+](C)(C)CCOc1ccccc1.N#C[N-]C#N here?
**A.** 0.785 ± 0.051

**Q.** With `CC#N` [acetonitrile] + CCCCCCCCCCCC[N+](C)(C)CCOc1ccccc1.O=S(=O)([N-]S(=O)(=O)C(F)(F)F)C(F)(F)F as the molecule, how does the activity coefficient read?
**A.** 0.539 ± 0.039

**Q.** For `c1ccccc1` [benzene] + CCCCCCCCCCCC[N+](C)(C)CCOc1ccccc1.N#C[N-]C#N, which activity coefficient is on record?
**A.** 0.938 ± 0.059

**Q.** With `c1ccccc1` [benzene] + CCCCCCCCCCCC[N+](C)(C)CCOc1ccccc1.O=S(=O)([N-]S(=O)(=O)C(F)(F)F)C(F)(F)F as the molecule, how does the activity coefficient read?
**A.** 0.687 ± 0.046

**Q.** For `CCCCO` [butan-1-ol] + CCCCCCCCCCCC[N+](C)(C)CCOc1ccccc1.N#C[N-]C#N, which activity coefficient is on record?
**A.** 0.494 ± 0.038

**Q.** For `CCCCO` [butan-1-ol] + CCCCCCCCCCCC[N+](C)(C)CCOc1ccccc1.O=S(=O)([N-]S(=O)(=O)C(F)(F)F)C(F)(F)F, which activity coefficient is on record?
**A.** 1.19 ± 0.08

**Q.** Which activity coefficient does the source give for `CCC(C)O` (stereo unspecified) [butan-2-ol] + CCCCCCCCCCCC[N+](C)(C)CCOc1ccccc1.N#C[N-]C#N here?
**A.** 0.536 ± 0.039

**Q.** For `CCC(C)O` (stereo unspecified) [butan-2-ol] + CCCCCCCCCCCC[N+](C)(C)CCOc1ccccc1.O=S(=O)([N-]S(=O)(=O)C(F)(F)F)C(F)(F)F, which activity coefficient is on record?
**A.** 1.12 ± 0.07

**Q.** With `CCCC=O` [butanal] + CCCCCCCCCCCC[N+](C)(C)CCOc1ccccc1.N#C[N-]C#N as the molecule, how does the activity coefficient read?
**A.** 0.803 ± 0.052

**Q.** For `CCCC=O` [butanal] + CCCCCCCCCCCC[N+](C)(C)CCOc1ccccc1.O=S(=O)([N-]S(=O)(=O)C(F)(F)F)C(F)(F)F, which activity coefficient is on record?
**A.** 0.844 ± 0.054

**Q.** With `C1CCCCCC1` [cycloheptane] + CCCCCCCCCCCC[N+](C)(C)CCOc1ccccc1.N#C[N-]C#N as the molecule, how does the activity coefficient read?
**A.** 3.34 ± 0.23

**Q.** Which activity coefficient does the source give for `C1CCCCCC1` [cycloheptane] + CCCCCCCCCCCC[N+](C)(C)CCOc1ccccc1.O=S(=O)([N-]S(=O)(=O)C(F)(F)F)C(F)(F)F here?
**A.** 2.4 ± 0.16

**Q.** For `C1CCCCC1` [cyclohexane] + CCCCCCCCCCCC[N+](C)(C)CCOc1ccccc1.N#C[N-]C#N, which activity coefficient is on record?
**A.** 3.2 ± 0.22

**Q.** With `C1CCCCC1` [cyclohexane] + CCCCCCCCCCCC[N+](C)(C)CCOc1ccccc1.O=S(=O)([N-]S(=O)(=O)C(F)(F)F)C(F)(F)F as the molecule, how does the activity coefficient read?
**A.** 2.13 ± 0.14

**Q.** With `C1=CCCCC1` [cyclohexene] + CCCCCCCCCCCC[N+](C)(C)CCOc1ccccc1.N#C[N-]C#N as the molecule, how does the activity coefficient read?
**A.** 2.26 ± 0.15

**Q.** With `C1=CCCCC1` [cyclohexene] + CCCCCCCCCCCC[N+](C)(C)CCOc1ccccc1.O=S(=O)([N-]S(=O)(=O)C(F)(F)F)C(F)(F)F as the molecule, how does the activity coefficient read?
**A.** 1.65 ± 0.11

**Q.** Which activity coefficient does the source give for `C1CCCCCCC1` [cyclooctane] + CCCCCCCCCCCC[N+](C)(C)CCOc1ccccc1.N#C[N-]C#N here?
**A.** 3.72 ± 0.25
